In the NIST ThermoML archive (doi:10.1021/je9005344):

Assay: xn = mol fraction of the nth substance listed
Settings: 101 kPa, Liquid; for speed of sound: Pulse-echo method; for mass density: Vibrating tube method

COCCO [2-methoxyethan-1-ol] + CCCCCCCCCCO
Settings	mass density, 293.15 K [kg/m3]	mass density, 298.15 K [kg/m3]	mass density, 303.15 K [kg/m3]	mass density, 308.15 K [kg/m3]	speed of sound, 293.15 K [m/s]	speed of sound, 298.15 K [m/s]	speed of sound, 303.15 K [m/s]	speed of sound, 308.15 K [m/s]
x1 = 0.0606	832.95	829.505	826.05	822.58	1393.1	1375.9	1359	1342.2
x1 = 0.1173	835.952	832.457	828.982	825.482	1389.5	1372.4	1355.4	1338.6
x1 = 0.1631	838.564	835.06	831.539	828.008	1386.6	1369.5	1352.6	1335.8
x1 = 0.1934	840.414	836.878	833.342	829.786	1384.7	1367.5	1350.6	1333.8
x1 = 0.251	844.262	840.695	837.111	833.512	1380.8	1363.7	1346.8	1330
x1 = 0.3025	847.887	844.28	840.662	837.024	1377.5	1360.4	1343.5	1326.7
x1 = 0.413	856.97	853.268	849.553	845.819	1370.2	1353.1	1336.2	1319.4
x1 = 0.517	867.321	863.518	859.697	855.861	1363.6	1346.6	1329.6	1312.8
x1 = 0.6285	880.912	876.98	873.028	869.056	1356.6	1339.6	1322.6	1305.7
x1 = 0.7087	892.252	888.913	884.854	880.773	1352.5	1335.3	1318.4	1301.5
x1 = 0.7965	909.015	904.836	900.644	896.427	1349.5	1332.3	1315.3	1298.3
x1 = 0.9382	944.534	940.097	935.63	931.137	1352.5	1335.3	1318.2	1301.1

COCCO [2-methoxyethan-1-ol] + CCCCCCCCO
Settings	mass density, 293.15 K [kg/m3]	mass density, 298.15 K [kg/m3]	mass density, 303.15 K [kg/m3]	mass density, 308.15 K [kg/m3]	speed of sound, 293.15 K [m/s]	speed of sound, 298.15 K [m/s]	speed of sound, 303.15 K [m/s]	speed of sound, 308.15 K [m/s]
x1 = 0.0535	828.636	825.138	821.625	818.089	1362	1345	1328.2	1311.5
x1 = 0.1073	832.242	828.704	825.153	821.583	1359.3	1342.3	1325.5	1308.9
x1 = 0.1407	834.668	831.104	827.528	823.931	1357.9	1340.7	1323.9	1307.2
x1 = 0.2002	839.135	835.528	831.905	828.261	1354.9	1337.9	1321.1	1304.5
x1 = 0.2659	844.444	840.786	837.111	833.414	1351.9	1334.9	1318.1	1301.4
x1 = 0.2973	847.294	843.606	839.904	836.178	1350.5	1333.6	1316.8	1300.1
x1 = 0.3559	852.613	848.877	845.122	841.346	1348	1331.1	1314.2	1297.5
x1 = 0.5233	870.97	870.97	863.148	859.203	1342.3	1325.3	1308.5	1296.6
x1 = 0.6059	881.954	867.068	873.942	869.902	1340.4	1323.4	1306.5	1289.7
x1 = 0.7126	898.662	877.961	890.382	886.205	1339.7	1322.6	1305.7	1288.8
x1 = 0.7903	912.569	908.335	904.076	899.757	1340.9	1323.9	1306.9	1290
x1 = 0.9202	942.675	938.234	933.772	929.291	1349.3	1332.2	1315	1298

COCCO [2-methoxyethan-1-ol] + CCCCCCO
Settings	mass density, 293.15 K [kg/m3]	mass density, 298.15 K [kg/m3]	mass density, 303.15 K [kg/m3]	mass density, 308.15 K [kg/m3]	speed of sound, 293.15 K [m/s]	speed of sound, 298.15 K [m/s]	speed of sound, 303.15 K [m/s]	speed of sound, 308.15 K [m/s]
x1 = 0.0538	822.792	819.173	815.536	811.869	1319.2	1302.3	1285.5	1268.9
x1 = 0.1042	828.127	824.464	820.781	817.068	1318.3	1301.4	1284.6	1267.9
x1 = 0.1509	831.771	828.075	824.358	820.611	1317.7	1300.8	1284	1267.4
x1 = 0.2055	837.788	834.043	830.27	826.473	1317.1	1300.2	1283.4	1266.8
x1 = 0.2405	841.087	837.314	833.515	829.687	1316.7	1299.8	1283.1	1266.4
x1 = 0.2987	847.639	843.81	839.961	836.084	1316.3	1299.5	1282.7	–
x1 = 0.4088	860.712	856.785	852.828	848.853	1317.3	1300.5	1283.6	1266.9
x1 = 0.5134	874.132	870.1	866.048	861.965	1318.6	1301.7	1284.8	1268.1
x1 = 0.5991	886.614	882.495	878.355	874.185	1321.2	1304.2	1287.3	1270.6
x1 = 0.6915	901.59	897.37	893.13	888.857	1325.9	1308.8	1291.9	1275
x1 = 0.805	922.045	917.699	913.334	908.936	1334.2	1317.1	1300.1	1283.2
x1 = 0.9039	942.54	938.079	933.591	929.076	1345	1327.9	1310.8	1293.7
